From article PMC11224111, “Optimizing the pharmacokinetics of an ^211At-labeled RGD peptide with an albumin-binding moiety via the administration of an albumin-binding inhibitor” (European Journal of Nuclear Medicine and Molecular Imaging, 2024)
“And” between values parts separate entries of the source, which are not always exact repeats. Identical values can stand only once.

Test system: U-87 MG tumor-bearing mice
Assay: Biodistribution in U-87 MG tumor-bearing mice with IPBA
Format: in vivo
Conditions: IPBA 10 eq at 1 h postinjection
Experimental: To prepare tumor-bearing mice, 5 × 10^6 of U-87 MG cells were subcutaneously inoculated into the right shoulder of 4-week-old female BALB/c nude mice (13–15 g, Japan SLC, Inc.) as previously reported. At approximately 10-day postinoculation of U-87 MG cells, they were used for each experiment after tumor size reached 0.3–0.5 cm^3.
At 1-h postinjection of [^211At]1 (37 kBq) and [^125I]2 (37 kBq), IPBA (1.9 mg, 6.1 µmol) was administered at 10 molar equivalent of blood albumin. Mice were sacrificed at 65-, 70-min, 2-, 4-, 12-, and 24-h postinjection of [^211At]1 and [^125I]2. Tissues of interest were removed and weighed, and radioactivity counts of ^125I and ^211At were determined with an auto well gamma counter (ARC-7010; Hitachi Medical, Ltd., Tokyo, Japan) and corrected for background radiation. To determine the radioactivity excreted from the body for 24 h, mice were housed in metabolic cages (Metabolica, Sugiyama-Gen Co., Ltd., Tokyo, Japan).

## Ga-DOTA-K([^211At]APBA)-c(RGDfK) [[^211At]1]
65 min after administration
  Radioactivity, Blood: 13.96 (0.18) % injected activity per gram
  Radioactivity, Bone: 4.07 (0.26) % injected activity per gram
  Radioactivity, Brain: 0.36 (0.00) % injected activity per gram
  Radioactivity, Heart: 5.28 (0.29) % injected activity per gram
  Radioactivity, Kidney: 16.15 (1.45) % injected activity per gram
  Radioactivity, L. intestine: 3.05 (0.10) % injected activity per gram
  Radioactivity, Liver: 5.20 (0.50) % injected activity per gram
  Radioactivity, Lung: 10.81 (0.60) % injected activity per gram
  Radioactivity, Muscle: 2.80 (0.39) % injected activity per gram
  Radioactivity, Neck: 0.04 (0.02) % injected activity
  Radioactivity, Pancreas: 2.82 (0.16) % injected activity per gram
  Radioactivity, S. intestine: 4.69 (0.26) % injected activity per gram
  Radioactivity, Spleen: 4.06 (0.21) % injected activity per gram
  Radioactivity, Stomach: 1.12 (0.28) % injected activity
  Radioactivity, Tumor: 10.92 (0.34) % injected activity per gram
70 min after administration
  Radioactivity, Blood: 9.85 (0.55) % injected activity per gram
  Radioactivity, Bone: 2.22 (0.60) % injected activity per gram
  Radioactivity, Brain: 0.26 (0.02) % injected activity per gram
  Radioactivity, Heart: 3.66 (0.27) % injected activity per gram
  Radioactivity, Kidney: 11.02 (1.44) % injected activity per gram
  Radioactivity, L. intestine: 2.25 (0.27) % injected activity per gram
  Radioactivity, Liver: 3.72 (0.52) % injected activity per gram
  Radioactivity, Lung: 7.40 (0.85) % injected activity per gram
  Radioactivity, Muscle: 1.60 (0.16) % injected activity per gram
  Radioactivity, Neck: 0.05 (0.00) % injected activity
  Radioactivity, Pancreas: 1.95 (0.14) % injected activity per gram
  Radioactivity, S. intestine: 3.61 (0.36) % injected activity per gram
  Radioactivity, Spleen: 2.77 (0.39) % injected activity per gram
  Radioactivity, Stomach: 0.78 (0.17) % injected activity
  Radioactivity, Tumor: 10.79 (1.09) % injected activity per gram
2 h after administration
  Radioactivity, Blood: 8.06 (0.39) % injected activity per gram
  Radioactivity, Bone: 3.04 (0.30) % injected activity per gram
  Radioactivity, Heart: 2.86 (0.31) % injected activity per gram
  Radioactivity, Kidney: 8.22 (0.51) % injected activity per gram
  Radioactivity, L. intestine: 2.35 (0.97) % injected activity per gram
  Radioactivity, Liver: 2.45 (0.21) % injected activity per gram
  Radioactivity, Lung: 5.67 (0.59) % injected activity per gram
  Radioactivity, Muscle: 1.96 (0.68) % injected activity per gram
  Radioactivity, Neck: 0.04 (0.02) % injected activity
  Radioactivity, Pancreas: 1.64 (0.14) % injected activity per gram
  Radioactivity, S. intestine: 2.42 (0.70) % injected activity per gram
  Radioactivity, Spleen: 2.34 (0.18) % injected activity per gram
  Radioactivity, Stomach: 0.81 (0.05) % injected activity
  Radioactivity, Tumor: 13.38 (1.48) % injected activity per gram
4 h after administration
  Radioactivity, Blood: 3.04 (0.26) % injected activity per gram
  Radioactivity, Bone: 1.60 (0.14) % injected activity per gram
  Radioactivity, Brain: 0.18 (0.02) % injected activity per gram
  Radioactivity, Heart: 1.44 (0.10) % injected activity per gram
  Radioactivity, Kidney: 5.32 (0.35) % injected activity per gram
  Radioactivity, L. intestine: 4.03 (1.33) % injected activity per gram
  Radioactivity, Liver: 1.34 (0.05) % injected activity per gram
  Radioactivity, Lung: 3.34 (0.11) % injected activity per gram
  Radioactivity, Muscle: 0.61 (0.01) % injected activity per gram
  Radioactivity, Neck: 0.02 (0.00) % injected activity
  Radioactivity, Pancreas: 0.93 (0.26) % injected activity per gram
  Radioactivity, S. intestine: 3.03 (0.65) % injected activity per gram
  Radioactivity, Spleen: 2.18 (0.13) % injected activity per gram
  Radioactivity, Stomach: 0.75 (0.01) % injected activity
  Radioactivity, Tumor: 12.48 (0.95) % injected activity per gram
12 h after administration
  Radioactivity, Blood: 2.71 (0.21) % injected activity per gram
  Radioactivity, Bone: 1.10 (0.24) % injected activity per gram
  Radioactivity, Brain: 0.12 (0.01) % injected activity per gram
  Radioactivity, Heart: 1.49 (0.11) % injected activity per gram
  Radioactivity, Kidney: 3.12 (0.14) % injected activity per gram
  Radioactivity, L. intestine: 0.89 (0.06) % injected activity per gram
  Radioactivity, Liver: 1.04 (0.12) % injected activity per gram
  Radioactivity, Lung: 3.50 (0.28) % injected activity per gram
  Radioactivity, Muscle: 0.54 (0.02) % injected activity per gram
  Radioactivity, Neck: 0.09 (0.03) % injected activity
  Radioactivity, Pancreas: 0.92 (0.08) % injected activity per gram
  Radioactivity, S. intestine: 1.01 (0.14) % injected activity per gram
  Radioactivity, Spleen: 1.41 (0.12) % injected activity per gram
  Radioactivity, Stomach: 0.72 (0.09) % injected activity
  Radioactivity, Tumor: 7.73 (0.76) % injected activity per gram
24 h after administration
  Radioactivity, Blood: 2.21 (0.38) % injected activity per gram
  Radioactivity, Bone: 0.64 (0.16) % injected activity per gram
  Radioactivity, Brain: 0.26 (0.31) % injected activity per gram
  Radioactivity, Heart: 0.90 (0.31) % injected activity per gram
  Radioactivity, Kidney: 1.91 (0.38) % injected activity per gram
  Radioactivity, L. intestine: 0.41 (0.24) % injected activity per gram
  Radioactivity, Liver: 0.73 (0.17) % injected activity per gram
  Radioactivity, Lung: 2.31 (0.34) % injected activity per gram
  Radioactivity, Muscle: 0.32 (0.07) % injected activity per gram
  Radioactivity, Neck: 0.04 (0.01) % injected activity
  Radioactivity, Pancreas: 0.41 (0.12) % injected activity per gram
  Radioactivity, S. intestine: 0.46 (0.22) % injected activity per gram
  Radioactivity, Spleen: 1.22 (0.27) % injected activity per gram
  Radioactivity, Stomach: 0.61 (0.18) % injected activity
  Radioactivity, Tumor: 6.15 ± 0.20 % injected activity per gram and 6.15 (0.20) % injected activity per gram
Until 24 h postinjection
  Radioactivity excreted, Feces: 4.09 ± 1.69 % injected activity and 4.09 (1.69) % injected activity
  Radioactivity excreted, Urine: 38.98 ± 5.39 % injected activity and 38.98 (5.39) % injected activity
